Results taken from ChEMBL document CHEMBL4837250, “Discovery of LYC-55716: A Potent, Selective, and Orally Bioavailable Retinoic Acid Receptor-Related Orphan Receptor-γ (RORγ) Agonist for Use in Treating Cancer” (J Med Chem, 2021).
Values after ≈ are worked out from the molar mass of the structure shown.

What was measured:
[1] = target: CYP3A4 (Homo sapiens, UniProt P08684); experiment: in vitro; conditions: probe testosterone
Description: Inhibition of CYP3A4 (unknown origin) assessed as oxidation of testosterone at 10 uM

[2] = in vitro; conditions: human, hepatocytes
[3] = target: T1, Nuclear receptor subfamily 1 group I member 2 (Homo sapiens, UniProt O75469)
T1 sequence (O75469 whole entry): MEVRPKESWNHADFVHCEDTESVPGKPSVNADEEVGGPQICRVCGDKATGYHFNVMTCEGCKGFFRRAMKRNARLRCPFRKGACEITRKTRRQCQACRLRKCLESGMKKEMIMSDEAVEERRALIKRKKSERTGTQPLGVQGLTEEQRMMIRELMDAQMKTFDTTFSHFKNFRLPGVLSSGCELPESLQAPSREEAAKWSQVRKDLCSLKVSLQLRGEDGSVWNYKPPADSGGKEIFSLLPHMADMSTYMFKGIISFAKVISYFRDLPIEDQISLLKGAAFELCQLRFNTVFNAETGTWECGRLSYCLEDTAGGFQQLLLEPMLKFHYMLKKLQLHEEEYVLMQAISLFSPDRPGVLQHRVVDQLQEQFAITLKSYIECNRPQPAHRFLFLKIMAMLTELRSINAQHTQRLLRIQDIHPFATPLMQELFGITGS
Description: Agonist activity at human PXR-gamma expressed in HEK293 cells assessed as transcriptional activity in presence of ursolic acid by Gal4-luciferase reporter assay

[4] = physchem; conditions: PBS buffer, pH 7.4
Description: Solubility of the compound in pH 7.4 PBS buffer

[5] = target: T2, Nuclear receptor ROR-gamma (Homo sapiens, UniProt P51449)
T2 sequence (P51449 whole entry): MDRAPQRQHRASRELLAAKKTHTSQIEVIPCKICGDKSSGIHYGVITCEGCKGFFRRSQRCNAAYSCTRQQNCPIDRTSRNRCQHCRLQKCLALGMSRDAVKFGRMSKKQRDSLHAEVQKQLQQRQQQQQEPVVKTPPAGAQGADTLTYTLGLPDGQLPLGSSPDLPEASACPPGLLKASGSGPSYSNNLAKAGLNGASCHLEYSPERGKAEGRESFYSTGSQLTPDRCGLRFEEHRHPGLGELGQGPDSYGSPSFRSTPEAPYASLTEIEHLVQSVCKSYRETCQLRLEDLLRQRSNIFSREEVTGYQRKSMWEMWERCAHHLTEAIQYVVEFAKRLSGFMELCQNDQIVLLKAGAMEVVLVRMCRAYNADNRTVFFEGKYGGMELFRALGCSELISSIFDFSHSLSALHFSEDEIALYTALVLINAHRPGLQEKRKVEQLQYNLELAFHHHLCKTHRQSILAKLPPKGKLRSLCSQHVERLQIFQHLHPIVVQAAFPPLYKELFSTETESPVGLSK
Description: Agonist activity at human ROR-gamma LBD expressed in HEK293 cells assessed as transcriptional activity in presence of ursolic acid by Gal4-luciferase reporter assay

[6] = target: T2, Nuclear receptor ROR-gamma; remark: listed apart in the source
Description: Agonist activity at human His-tagged RORgamma-LBD expressed in Sf9 cells assessed as inhibition of N-terminal biotinylated co-activator SRC1 recruitment in presence of ursolic acid measured after 60 mins by FRET assay

[7] = target: CYP2D6 (Homo sapiens, UniProt P10635); experiment: in vitro; conditions: probe testosterone
Chain of CYP2D6 (P10635 whole entry): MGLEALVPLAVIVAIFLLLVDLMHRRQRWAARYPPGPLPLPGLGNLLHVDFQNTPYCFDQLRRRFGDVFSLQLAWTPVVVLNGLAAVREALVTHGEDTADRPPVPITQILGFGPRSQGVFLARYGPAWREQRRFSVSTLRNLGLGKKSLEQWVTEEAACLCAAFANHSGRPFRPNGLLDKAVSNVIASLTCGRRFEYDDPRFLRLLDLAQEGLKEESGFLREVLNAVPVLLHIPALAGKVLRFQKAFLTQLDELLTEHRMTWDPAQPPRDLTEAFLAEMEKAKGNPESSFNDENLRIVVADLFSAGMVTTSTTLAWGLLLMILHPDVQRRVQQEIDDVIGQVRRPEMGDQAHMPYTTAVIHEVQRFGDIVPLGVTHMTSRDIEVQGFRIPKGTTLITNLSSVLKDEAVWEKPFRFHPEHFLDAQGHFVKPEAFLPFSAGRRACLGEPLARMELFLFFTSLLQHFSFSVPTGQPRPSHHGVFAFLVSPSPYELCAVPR
Description: Inhibition of CYP2D6 (unknown origin) assessed as oxidation of testosterone at 10 uM

Chain of CYP3A4 (P08684 whole entry): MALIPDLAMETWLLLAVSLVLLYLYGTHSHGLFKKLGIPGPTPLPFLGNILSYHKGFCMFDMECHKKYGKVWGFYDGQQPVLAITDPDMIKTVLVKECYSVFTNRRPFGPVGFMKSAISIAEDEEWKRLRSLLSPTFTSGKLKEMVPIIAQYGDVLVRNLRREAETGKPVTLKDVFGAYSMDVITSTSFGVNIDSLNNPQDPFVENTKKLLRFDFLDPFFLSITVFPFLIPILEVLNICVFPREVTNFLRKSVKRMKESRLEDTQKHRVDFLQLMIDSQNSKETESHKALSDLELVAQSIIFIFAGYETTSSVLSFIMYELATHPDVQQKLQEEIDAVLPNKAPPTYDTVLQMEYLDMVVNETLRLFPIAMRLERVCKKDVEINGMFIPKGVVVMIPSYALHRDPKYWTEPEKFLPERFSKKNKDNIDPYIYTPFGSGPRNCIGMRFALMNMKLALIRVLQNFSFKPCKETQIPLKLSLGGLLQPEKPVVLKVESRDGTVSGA

## O=C(O)CC[C@H]1CN(S(=O)(=O)c2cccc(C(F)(F)F)c2)c2cc(-c3cc(F)cc(F)c3)ccc2O1
[1]
  inhibition at 10 µM: 25%
[2]
  hepatocyte CLint: 31 µL/min/1e6 cells
[3]
  EC50: > 10000 nM
[4]
  solubility: 277 µM (≈ 146 µg/mL)

## O=C(O)CC[C@H]1CN(S(=O)(=O)c2cccc(C(F)(F)F)c2)c2cc(/C=C/c3ccc(Cl)cc3F)ccc2O1
[5]
  EC50: > 10000 nM
[6]
  EC50: 342 nM
[3]
  EC50: > 10000 nM

## O=C(O)CC[C@H]1CN(S(=O)(=O)c2cccc(C(F)(F)F)c2)c2cc(-c3cc(F)cc(OC(F)F)c3)ccc2O1
[1]
  inhibition at 10 µM: 5%
[7]
  inhibition at 10 µM: -6%
[3]
  EC50: > 10000 nM

## O=C(O)C1(C[C@H]2CN(S(=O)(=O)c3cccc(C(F)(F)F)c3)c3cc(-c4cc(F)ccc4F)ccc3O2)COC1
[5]
  EC50: 179 nM
[6]
  EC50: 10 nM
[3]
  EC50: 18000 nM
[4]
  solubility: 201 µM (≈ 114 µg/mL)

## C/C(=C\c1ccc2c(c1)N(S(=O)(=O)c1cccc(C(F)(F)F)c1)C[C@H](CCC(=O)O)O2)c1c(Cl)cccc1Cl
[5]
  EC50: 487 nM
[6]
  EC50: 435 nM
[1]
  inhibition at 10 µM: 6%
[2]
  hepatocyte CLint: 23 µL/min/1e6 cells
[7]
  inhibition at 10 µM: -1%
[3]
  EC50: > 10000 nM
[4]
  solubility: 309 µM (≈ 186 µg/mL)

## CC(C)(C[C@H]1CN(S(=O)(=O)c2cccc(C(F)(F)F)c2)c2cc(-c3cccc(Cl)c3F)ccc2O1)C(=O)O
[1]
  inhibition at 10 µM: 28.5%
[7]
  inhibition at 10 µM: 6%
[3]
  EC50: > 10000 nM

## C/C(=C\c1ccc2c(c1)N(S(=O)(=O)c1cccc(C(F)(F)F)c1)C[C@H](CCC(=O)O)O2)c1ccccc1C(F)(F)F
[5]
  EC50: 290 nM
[6]
  EC50: 108 nM
[1]
  inhibition at 10 µM: 18%
[2]
  hepatocyte CLint: 23 µL/min/1e6 cells
[7]
  inhibition at 10 µM: 2%
[3]
  EC50: > 10000 nM
[4]
  solubility: 260 µM (≈ 156 µg/mL)

## C/C(=C\c1ccc2c(c1)N(S(=O)(=O)c1cccc(OC(F)F)c1)C[C@H](CCC(=O)O)O2)c1c(F)cccc1Cl
[5]
  EC50: 280 nM
[6]
  EC50: 195 nM
[1]
  inhibition at 10 µM: 9%
[2]
  hepatocyte CLint: 9.4 µL/min/1e6 cells
[7]
  inhibition at 10 µM: 2%
[3]
  EC50: 9100 nM
[4]
  solubility: 248 µM (≈ 144 µg/mL)

## O=C(O)CC[C@H]1CN(S(=O)(=O)c2cccc(C(F)(F)F)c2)c2cc(-c3cccc(F)c3)ccc2O1
[1]
  inhibition at 10 µM: 19%
[7]
  inhibition at 10 µM: 0%
[3]
  EC50: > 10000 nM

## O=C(O)CC[C@H]1CN(S(=O)(=O)c2cccc(C(F)(F)F)c2)c2cc(-c3cccc(Cl)c3)ccc2O1
[1]
  inhibition at 10 µM: 24%
[7]
  inhibition at 10 µM: 0%
[3]
  EC50: > 10000 nM

## O=S(=O)(c1cccc(C(F)(F)F)c1)N1C[C@H](CC2(CO)COC2)Oc2ccc(Br)cc21
[3]
  EC50: > 10000 nM

## O=C(O)[C@@H](O)CC[C@H]1CN(S(=O)(=O)c2cccc(C(F)(F)F)c2)c2cc(-c3cc(F)ccc3F)ccc2O1
[5]
  EC50: 501 nM
[6]
  EC50: 13 nM
[2]
  hepatocyte CLint: 18 µL/min/1e6 cells
[3]
  EC50: > 10000 nM

## C[C@@H](C[C@H]1CN(S(=O)(=O)c2cccc(C(F)(F)F)c2)c2cc(-c3cc(F)ccc3F)ccc2O1)C(=O)O
[1]
  inhibition at 10 µM: 17%
[7]
  inhibition at 10 µM: 13%
[3]
  EC50: > 10000 nM

## O=C(O)CC[C@H]1CN(S(=O)(=O)c2cccc(C(F)(F)F)c2)c2cc(-c3cccc(OC(F)F)c3)ccc2O1
[5]
  EC50: 278 nM
[6]
  EC50: 10 nM
[1]
  inhibition at 10 µM: 19%
[2]
  hepatocyte CLint: 36 µL/min/1e6 cells
[7]
  inhibition at 10 µM: 7%
[3]
  EC50: > 10000 nM
[4]
  solubility: 287 µM (≈ 160 µg/mL)

## COc1cccc(-c2ccc3c(c2)N(S(=O)(=O)c2cccc(C(F)(F)F)c2)C[C@H](CCC(=O)O)O3)c1
[1]
  inhibition at 10 µM: 19%
[2]
  hepatocyte CLint: 44 µL/min/1e6 cells
[7]
  inhibition at 10 µM: 2%
[3]
  EC50: > 10000 nM
[4]
  solubility: 280 µM (≈ 146 µg/mL)

## O=C(O)CC[C@H]1CN(S(=O)(=O)c2cccc(C(F)(F)F)c2)c2cc(-c3ccc(Cl)cc3)ccc2O1
[6]
  EC50: 27 nM
[1]
  inhibition at 10 µM: 14%
[2]
  hepatocyte CLint: 38 µL/min/1e6 cells
[7]
  inhibition at 10 µM: -2%
[4]
  solubility: 15 µM (≈ 7.89 µg/mL)

## COc1cc(F)cc(-c2ccc3c(c2)N(S(=O)(=O)c2cccc(C(F)(F)F)c2)C[C@H](CCC(=O)O)O3)c1
[3]
  EC50: > 10000 nM

## COc1ccccc1/C(C)=C/c1ccc2c(c1)N(S(=O)(=O)c1cccc(C(F)(F)F)c1)C[C@H](CCC(=O)O)O2
[1]
  inhibition at 10 µM: 19%
[2]
  hepatocyte CLint: 33 µL/min/1e6 cells
[7]
  inhibition at 10 µM: 3%
[3]
  EC50: > 10000 nM
[4]
  solubility: 183 µM (≈ 103 µg/mL)

## COc1cc(S(=O)(=O)N2C[C@H](CCC(=O)O)Oc3ccc(/C=C(\C)c4c(F)cccc4Cl)cc32)ccc1F
[1]
  inhibition at 10 µM: -0.5%
[7]
  inhibition at 10 µM: 10%
[3]
  EC50: > 10000 nM

## C/C(=C\c1ccc2c(c1)N(S(=O)(=O)c1cccc(C(F)(F)F)c1)C[C@H](CCC(=O)O)O2)c1ccccc1C
[1]
  inhibition at 10 µM: 0%
[7]
  inhibition at 10 µM: -6%

## O=C(O)CC[C@H]1CN(S(=O)(=O)c2cccc(C(F)(F)F)c2)c2cc(/C=C/c3c(F)cccc3Cl)ccc2O1
[5]
  EC50: 617 nM
[6]
  EC50: 33 nM
[1]
  inhibition at 10 µM: 33%
[2]
  hepatocyte CLint: 26 µL/min/1e6 cells
[7]
  inhibition at 10 µM: -5.6%
[3]
  EC50: > 10000 nM
[4]
  solubility: 273 µM (≈ 156 µg/mL)

## CC(C)c1ccc(-c2ccc3c(c2)N(S(=O)(=O)c2cccc(C(F)(F)F)c2)C[C@H](CCC(=O)O)O3)cc1
[5]
  EC50: > 10000 nM
[6]
  EC50: 42 nM
[1]
  inhibition at 10 µM: -4%
[2]
  hepatocyte CLint: 31 µL/min/1e6 cells
[7]
  inhibition at 10 µM: 2%
[3]
  EC50: > 10000 nM

## C[C@H](C[C@H]1CN(S(=O)(=O)c2cccc(C(F)(F)F)c2)c2cc(-c3cc(F)ccc3F)ccc2O1)C(=O)O
[1]
  inhibition at 10 µM: 18%
[7]
  inhibition at 10 µM: 11%
[3]
  EC50: > 10000 nM

## O=C(O)CC[C@H]1CN(S(=O)(=O)c2cccc(C(F)(F)F)c2)c2cc(-c3cccc(OCCO)c3)ccc2O1
[5]
  EC50: > 10000 nM
[6]
  EC50: > 10000 nM
[3]
  EC50: > 10000 nM

## C/C(=C\c1ccc2c(c1)N(S(=O)(=O)c1ccc(F)c(C3CC3)c1)C[C@H](CCC(=O)O)O2)c1c(F)cccc1Cl
[5]
  EC50: 495 nM
[6]
  EC50: 269 nM
[1]
  inhibition at 10 µM: 4%
[2]
  hepatocyte CLint: 11 µL/min/1e6 cells
[7]
  inhibition at 10 µM: 10%
[3]
  EC50: 6700 nM
[4]
  solubility: 250 µM (≈ 144 µg/mL)

## C/C(=C\c1ccc2c(c1)N(S(=O)(=O)c1ccc(F)c(C(F)(F)F)c1)C[C@H](CCC(=O)O)O2)c1c(F)cccc1Cl
[5]
  EC50: 411 nM
[6]
  EC50: 85 nM
[2]
  hepatocyte CLint: 24 µL/min/1e6 cells
[3]
  EC50: 6000 nM
[4]
  solubility: 61 µM (≈ 36.7 µg/mL)

## O=C(O)[C@H](O)CC[C@H]1CN(S(=O)(=O)c2cccc(C(F)(F)F)c2)c2cc(-c3cc(F)ccc3F)ccc2O1
[5]
  EC50: 166 nM
[6]
  EC50: 120 nM
[2]
  hepatocyte CLint: 13 µL/min/1e6 cells
[3]
  EC50: > 10000 nM

## C/C(=C\c1ccc2c(c1)N(S(=O)(=O)c1cccc(C(F)(F)F)c1)C[C@H](CCC(=O)O)O2)c1ccccc1
[1]
  inhibition at 10 µM: -3%
[2]
  hepatocyte CLint: 22 µL/min/1e6 cells
[7]
  inhibition at 10 µM: 3%
[3]
  EC50: > 10000 nM
[4]
  solubility: 267 µM (≈ 142 µg/mL)

## C/C(=C\c1ccc2c(c1)N(S(=O)(=O)c1cccc(C(F)(F)F)c1)C[C@H](CCC(=O)O)O2)c1ccccc1Cl
[1]
  inhibition at 10 µM: 7%
[2]
  hepatocyte CLint: 22 µL/min/1e6 cells
[7]
  inhibition at 10 µM: 13%
[3]
  EC50: > 10000 nM
[4]
  solubility: 309 µM (≈ 175 µg/mL)
